The source of these data is patent US20250295693A1, “HYBRID TUMOR/CANCER THERAPY BASED ON TARGETING THE RESOLUTION OF OR INDUCING TRANSCRIPTION-REPLICATION CONFLICTS (TRCS)” (Julius-Maximilians-Universität Würzburg, priority 2021, published 2025).

Entries after “also recorded” stand apart in the source; their conditions may differ.

Assay [1] relates to pancreas carcinoma cells. In words: Microscopy-based siRNA screen for DNA damage in pancreas carcinoma cells. It counts as cell-based. The settings on record: siRNA hits, low concentration of ATR inhibitor. From the text:
FIG. 1. […] Similar assays (not shown) establish that CDK12 acts downstream of PAF1 in this pathway. e: DNA damage and colony assays in response to combined inhibition of CDK12 and ATR.
Targeting the mechanisms that resolve TRCs is considered a viable strategy to inflict tumor cell-specific DNA damage and/or to sensitize tumors to immune cell-mediated killing. Several of the mechanisms described herein appear to be specific for MYCN-driven tumors. For example, (c-)MYC (herein also just “MYC”) binds only very weakly to Aurora-A (Dauch, Nat Med 22, 2016, 744-53). Therefore, pathways have been identified that resolve TRCs in models of MYC driven tumors, which encompasses the vast majority of all tumors. Specifically, there was a focus on conflicts in a cell line established from the KPC model of pancreas carcinoma (Hingorani, loc.cit.). This reflects human PDAC. In this model, an siRNA screen of 86 candidate genes was performed using several parallel microscope-based assays to measure the occurrence of TRCs (FIG. 1).

Assay [2] deals with Aurora-A alleles, T217D and T217E (Homo sapiens, UniProt O14965, T217D). The settings on record: cited from earlier work.
Chain of Aurora-A alleles, T217D and T217E (O14965 whole entry T217D): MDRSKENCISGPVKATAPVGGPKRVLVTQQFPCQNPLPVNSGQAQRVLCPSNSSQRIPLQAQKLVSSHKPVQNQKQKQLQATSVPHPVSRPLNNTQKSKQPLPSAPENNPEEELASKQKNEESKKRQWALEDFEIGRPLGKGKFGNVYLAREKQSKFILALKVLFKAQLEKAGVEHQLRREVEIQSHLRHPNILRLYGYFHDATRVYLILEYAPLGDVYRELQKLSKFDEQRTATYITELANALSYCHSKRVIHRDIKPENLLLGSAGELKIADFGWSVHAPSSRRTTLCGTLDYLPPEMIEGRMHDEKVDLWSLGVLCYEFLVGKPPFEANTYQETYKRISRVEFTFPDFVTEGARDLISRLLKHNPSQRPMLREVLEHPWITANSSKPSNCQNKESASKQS
Assay [3] relates to CDK12 kinase. The settings on record: cited from earlier work.
Assay [4] deals with MYC protein. In words: Immunoblot of MYC protein in human tumor cells. The assay is classed as cell-based. The settings on record: 24 h treatment. On the procedure: FIG. 14. […] A: Immunoblot of tumor cells after 24 h treatment with Cymarin. B: Quantification of MYC protein levels in human pancreatic tumor cells and colorectal tumor cells.
(§1) After treatment for 24 h, cells were harvested in RIPA buffer containing protease and phosphatase inhibitor cocktails. The protein concentration was determined using BCA or Bradford assay. 15 μg of protein was loaded on a 10% SDS gel. After electrophoresis, proteins were transferred to 0.45 μm PVDF membrane and incubated with primary antibodies at 4° C. overnight. The signal was detected using peroxidase-conjugated species-specific secondary antibodies and visualized at LAS-4000 Luminescent Image Analyzer (Fujifilm).
An immunoblot of tumor cells after 24 h treatment with cymarin was made (FIG. 14A). Quantification of MYC protein levels in human pancreatic tumor cells and colorectal tumor cells was performed (FIG. 14B).
In general terms: A western blot detects proteins with antibodies after separation by electrophoresis.

Assay [5] relates to MYC. Briefly: MYC expression in cells with ectopic expression of murine ATP1A1. The assay is classed as cell-based. On the procedure:
FIG. 15. The effect of CG on MYC protein levels is mediated by inhibition of the NA/K pump. A: Depletion of the ATP1A1 subunit of the NA/K pump leads to the reduction of MYC protein levels. B: Ectopic expression of murine ATP1A1 renders the expression of MYC insensitive from the addition of cymarin, a prototypical KG.
as §1
Further, it was shown that the depletion of the ATP1A1 subunit of the NA/K pump leads to the reduction of MYC protein levels (FIG. 15A).

Assay [6] has as its system human LS174 colo-rectal tumor cells. Briefly: Extracellular acidification rate (lactate secretion), Seahorse XF96. It counts as cell-based.
Assay [7] relates to RPA194 and RAD9. In words: Proximity ligation assays for RPA194 and RAD9. It counts as cell-based. From the text: (§2) Deregulation of the WNT pathway in CRC not only deregulates transcription by RNAPII, but also by RNA polymerase I, which transcribes ribosomal RNAs in the nucleolus; this leads to enhanced synthesis of ribosomal RNA (Morral, Cell stem cell 26, 2020, 845-61). This is mediated by a beta-catenin dependent upregulation of multiple components of the ribosomal RNA synthesis machinery (FIG. 4a). Further to these observations, the effect of CX-5461, an inhibitor of RNA polymerase I transcription on the growth of CRC metastases, was analyzed. […] This observation was confirmed. […] Since there is an ongoing debate on the primary mechanism of CX-5461 action (Bruno, PNAS 117, 2020, 4053-60; Sanij, Nat Commun 11, 2020, 2641; Xu, Nat Commun 8, 2017, 14432), genetic work to validate its precise mechanism of action, and to further confirm that combining POL1 and ATR inhibition is a valid strategy to induce TRCs, is performed.

Assay [8] concerns phosphoKap1. Briefly: EdU incorporation/Hoechst plots with phosphoKap1 staining (DNA damage in S-phase). It counts as cell-based. The settings on record: b279: in conjunction with ATR inhibition.
From the text: as §2

In assay [9] the test system is murine CRC organoids. Briefly: Growth of CRC organoids, CX-5461 plus ATR inhibitor. It counts as cell-based. The settings on record: low concentrations of CX-5461 combined with ATR inhibitor (AZD6738).
From the text: as §2

Assay [10] deals with human CRC cell lines. Briefly: Colony assays of CRC cells in culture. It counts as cell-based. The settings on record: low concentrations of CX-5461 combined with ATR inhibitor (AZD6738); p53-independent.
From the text: as §2

For the molecule `C[C@@H]1COCCN1c1cc(C2([S@](C)(=N)=O)CC2)nc(-c2cc[nH]c3nccc2-3)n1` [AZD6738], in [1], the DNA damage result is “strongly increased DNA damage”.
Regarding `COc1cc(Nc2ncc3c(n2)-c2ccc(Cl)cc2C(c2c(F)cccc2OC)=NC3)ccc1C(=O)O` [Alisertib], the resistance of cells result in assay [2] is listed as “resistant”.
Regarding `Cn1cc(-n2cnc3c(NCc4nc5cc(Cl)c(Cl)cc5[nH]4)nc(N4CCOCC4)nc32)cn1` [SR4835], the “inhibition of the CDK12 kinase” value in assay [3] was “specific and potent inhibitor”.
For `CO[C@H]1C[C@H](O[C@H]2CC[C@]3(C=O)[C@H]4CC[C@]5(C)[C@@H](C6=CC(=O)OC6)CC[C@]5(O)[C@@H]4CC[C@]3(O)C2)O[C@H](C)[C@H]1O` [cymarin, Cymarin], the “amount of MYC protein” value in [4] was “reduce the amount of MYC protein”. Further, the “expression of MYC on addition of cymarin” value in assay [5] was “insensitive”. Moreover, the “extracellular acidification rate (lactate secretion)” value in [6] (LS174 cells) is given as “significantly reduced”. For the same molecule, the “effect on extracellular acidification rate” value in [6] (overexpression of the murine 1 isoform of Na+/K+-ATPase) is reported as “can be reduced”.
With `Cc1cnc(CNC(=O)c2c(=O)c3ccc(N4CCCN(C)CC4)nc3n3c2sc2ccccc23)cn1` [CX-5461], the “conflicts with DNA replication: proximity between RPA194 and RAD9” value in [7] is “increased proximity”. For the same molecule, the “DNA damage during DNA replication (S-phase)” value in [8] was “induction of DNA damage; also recorded: massive DNA damage”. In addition, the “colony formation / growth of organoids” value in assay [9] is on record as “suppression of growth; also recorded: almost completely suppressed”. Also, the colony formation entry in assay [10] is given as “suppression of growth; also recorded: almost completely suppressed”.
